# Test results published in patent publication US20150276767A1, “SYSTEMS AND METHODS FOR IDENTIFYING CANCERS HAVING ACTIVATED PROGESTERONE RECEPTORS” (THE UNIVERSITY OF SYDNEY, priority 2014, published 2015).
# Columns and labels:
# [1] = system: progesterone receptor (PR) binding to genomic regions in T-47D breast cancer cells; test: ChIP-PCR of PR binding regions in T-47D cells; assay type: cell-based, human
# Protocol: Cells were cultured to 80% confluency in 15 cm tissue culture dishes, then treated for 45 minutes with 10 nM ORG2058 or vehicle. Chromatin was subsequently cross-linked by the addition of formaldehyde to the culture medium to a final concentration of 1% and incubation for 10 minutes at 37° C. Media were immediately removed and the cells were washed with cold phosphate buffered saline and harvested by scraping. Cells were collected by centrifugation and pellets were lysed 10 minutes at 4° C. in SDS buffer (1% SDS; 10 mM EDTA; 50 mM Tris-HCl, pH 8). The lysates were sonicated at 4° C. with a Branson 450 sonicator, using seven one minute bursts at 40% amplitude and 60% duty, each separated by a rest of at least one minute. Lysates were centrifuged at 13,000×g at 4° C. for 15 minutes to remove debris. […] Supernatants were diluted 1:10 with IP buffer (0.5% NP-40; 50 mM Tris, pH 8; 120 mM NaCl; 0.5 mM PMSF; Complete protease inhibitor cocktail, Roche, Ryde, Australia) and pre-cleared by incubation with Dynabeads M-280 sheep anti-mouse IgG magnetic beads (Invitrogen, Mulgrave, Australia), with gentle rotation at 4° C. for at least 2 h to reduce non-specific binding to the secondary antibody beads. Genomic DNA fragments that were bound to PR were isolated by rotation overnight at 4° C. with in-house hPRa6 and hPRa7 mouse monoclonal anti-PR antibodies and fresh sheep anti-mouse IgG magnetic beads (40 ul per 1.4 ml diluted lysate). Beads were washed sequentially with IP buffer, high salt wash buffer (0.5% NP-40, 50 mM Tris, pH 8, 500 mM NaCl, 0.5 mM PMSF), lithium wash buffer (250 mM LiCl, 0.5% NP-40, 1% sodium deoxycholate, 1 mM EDTA, pH 8, 10 mM Tris-HCl, pH 8) and TE (10 mM Tris, pH 8, 1 mM EDTA). Isolated DNA fragments were eluted twice for 15 minutes at room temperature using elution buffer (1% SDS, 0.1M NaHCO3). Cross-links were reversed by addition of 0.25M NaCl and heating to 65° C. for at least 6 h. DNA fragments were purified using Qiagen PCR purification columns (Qiagen, Doncaster, Australia). DNA fragments isolated by PR chromatin immunoprecipitation from ORG2058 treated cells were sequenced on an Illumina GA-IIx sequencer at the Ramaciotti Centre for Gene Function Analysis (University of New South Wales, Australia) and GeneWorks (Hindmarsh, Australia). Input DNA isolated from the pre-cleared ORG2058 treated samples were sequenced as a baseline control. An aliquot of DNA was isolated from the ORG2058-treated, pre-cleared sample, to serve as an input DNA control sample in next-generation sequencing.
# Directed ChIP was performed using the same protocol as described for ChIP-seq. Target templates were quantitated using Platinum Sybr Green reagents (Invitrogen) in a RotorGene 6000 real-time PCR machine. Directed ChIP was carried out as described above and purified gDNA fragments were diluted 2 to 5-fold prior to quantitation by real-time qPCR.
# We conducted ChIP-PCR in T-47D cells and a second breast cancer cell line HCC1428, with ORG2058, onapristone, their combination or vehicle. The concentrations used were 1 nM ORG2058 and 100 nM onapristone.
# [2] = system: progesterone receptor (PR) binding to genomic regions in HCC1428 breast cancer cells; test: ChIP-PCR of PR binding regions in HCC1428 cells; assay type: cell-based, human
# Protocol: Cells were cultured to 80% confluency in 15 cm tissue culture dishes, then treated for 45 minutes with 10 nM ORG2058 or vehicle. Chromatin was subsequently cross-linked by the addition of formaldehyde to the culture medium to a final concentration of 1% and incubation for 10 minutes at 37° C. Media were immediately removed and the cells were washed with cold phosphate buffered saline and harvested by scraping. Cells were collected by centrifugation and pellets were lysed 10 minutes at 4° C. in SDS buffer (1% SDS; 10 mM EDTA; 50 mM Tris-HCl, pH 8). The lysates were sonicated at 4° C. with a Branson 450 sonicator, using seven one minute bursts at 40% amplitude and 60% duty, each separated by a rest of at least one minute. Lysates were centrifuged at 13,000×g at 4° C. for 15 minutes to remove debris. […]
# Directed ChIP was performed using the same protocol as described for ChIP-seq. Target templates were quantitated using Platinum Sybr Green reagents (Invitrogen) in a RotorGene 6000 real-time PCR machine. Directed ChIP was carried out as described above and purified gDNA fragments were diluted 2 to 5-fold prior to quantitation by real-time qPCR. […]
# [3] = system: progestin-regulated genes in T-47D cells; test: Expression profiling in T-47D cells; assay type: cell-based, human
# Protocol: (§1) Total RNA was isolated using RNAqueous purification columns (Invitrogen). Total RNA (500 ng) was amplified and biotin labelled using Illumina TotalPrep reagents (Invitrogen). The amplified samples (750 ng) were hybridized to human whole genome HT-12 gene expression bead arrays using the recommended Illumina reagents and following the manufacturer's protocol. Raw data were analysed using Genome Studio software (Illumina). After background subtraction data and cubic spline normalization, differential expression p values were determined using the Illumina custom model of Genome Studio. Data were further analysed using Microsoft Excel and SPSS statistical software. Hierarchical clustering and self organizing map clustering were performed using GenePattern.
# (§2) Onapristone ablated progestin regulation of all but 5 genes in T-47D and 6 genes in HCC1428.
# [4] = system: progestin-regulated genes in HCC1428 cells; test: Expression profiling in HCC1428 cells; assay type: cell-based, human; conditions: onapristone with 1 nM ORG2058
# Protocol: as §1, §2
# [5] = target: T1, PR (Homo sapiens, UniProt P06401); conditions: relative to the synthetic analogue ORG2058; cited from earlier work
# T1 sequence (P06401 1-933): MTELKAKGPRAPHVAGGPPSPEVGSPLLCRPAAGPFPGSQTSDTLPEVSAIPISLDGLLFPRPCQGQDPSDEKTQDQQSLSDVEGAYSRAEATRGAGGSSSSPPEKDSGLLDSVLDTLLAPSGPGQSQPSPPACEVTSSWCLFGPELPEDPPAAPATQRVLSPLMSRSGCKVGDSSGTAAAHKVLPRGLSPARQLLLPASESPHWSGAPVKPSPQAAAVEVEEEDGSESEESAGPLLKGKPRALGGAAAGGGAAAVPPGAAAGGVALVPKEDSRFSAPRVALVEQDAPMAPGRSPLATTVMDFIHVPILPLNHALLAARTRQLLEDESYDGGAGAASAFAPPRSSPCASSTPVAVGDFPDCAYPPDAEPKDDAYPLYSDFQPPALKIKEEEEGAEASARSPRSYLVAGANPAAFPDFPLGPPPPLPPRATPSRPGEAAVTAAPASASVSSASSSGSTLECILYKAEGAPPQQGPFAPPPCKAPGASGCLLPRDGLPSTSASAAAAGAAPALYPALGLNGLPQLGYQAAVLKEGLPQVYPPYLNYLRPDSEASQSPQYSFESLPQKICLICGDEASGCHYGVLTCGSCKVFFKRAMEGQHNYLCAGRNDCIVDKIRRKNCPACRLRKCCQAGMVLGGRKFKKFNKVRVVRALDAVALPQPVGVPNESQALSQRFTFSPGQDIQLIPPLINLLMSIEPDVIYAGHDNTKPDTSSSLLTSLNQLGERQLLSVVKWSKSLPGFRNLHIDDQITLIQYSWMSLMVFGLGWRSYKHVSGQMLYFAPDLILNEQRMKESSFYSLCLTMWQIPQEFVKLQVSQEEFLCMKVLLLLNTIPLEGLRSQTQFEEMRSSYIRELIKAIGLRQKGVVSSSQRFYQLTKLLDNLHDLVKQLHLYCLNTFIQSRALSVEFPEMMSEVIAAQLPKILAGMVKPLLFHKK
# [6] = 1 nM ORG2058, in one or both cell lines (T-47D, HCC1428)
compound,measurement,setting,value
"CC[C@@H]1C[C@H]2[C@@H]3CCC4=CC(=O)CC[C@@H]4[C@H]3CC[C@]2(C)[C@H]1C(=O)CO [ORG2058, (8R,9S,10R,13S,14S,16R,17S)-16-ethyl-17-(2-hydroxyacetyl)-13-methyl-2,6,7,8,9,10,11,12,14,15,16,17-dodecahydro-1H-cyclopenta[a]phenanthren-3-one]",ORG effects at the concentration used (preliminary experiments),"[1]; 1 nM ORG2058, cell line of preliminary experiments not stated",maximal
same,PR binding regions with binding by ORG2058-liganded PR confirmed,"[1]; T-47D, 1 nM ORG2058, ten regions tested",9 of the 10
same,PR binding regions with binding by ORG2058-liganded PR confirmed,"[2]; 1 nM ORG2058, ten regions tested",9 of the 10
same,Differentially expressed probes,[3]; [6],309 probes
same,Genes regulated,[3]; [6],267 genes
"CN(C)c1ccc([C@H]2C[C@]3(C)[C@@H](CC[C@]3(O)CCCO)[C@@H]3CCC4=CC(=O)CCC4=C32)cc1 [onapristone, (8S,11R,13R,14S,17S)-11-[4-(dimethylamino)phenyl]-17-hydroxy-17-(3-hydroxypropyl)-13-methyl-1,2,6,7,8,11,12,14,15,16-decahydrocyclopenta[a]phenanthren-3-one]",PR binding in the presence of onapristone alone,"[1]; 100 nM onapristone alone, mainly in T-47D cells",PR binding to some targets
same,Effect of onapristone on ORG effects (preliminary experiments),"[1]; 100 nM onapristone with 1 nM ORG2058, cell line of preliminary experiments not stated",ablated
same,PR binding regions with attenuation of ORG2058-liganded PR binding by onapristone confirmed,"[1]; T-47D, 100 nM onapristone + 1 nM ORG2058, ten regions tested",9 of the 10 and attenuated
same,Genes whose progestin regulation was not ablated by onapristone,[4],6 genes
same,PR binding regions with attenuation of ORG2058-liganded PR binding by onapristone confirmed,"[2]; 100 nM onapristone + 1 nM ORG2058, ten regions tested",9 of the 10 and attenuated
same,Genes whose progestin regulation was not ablated by onapristone,"[3]; T-47D, onapristone with 1 nM ORG2058",5 genes
CC(=O)[C@H]1CC[C@H]2[C@@H]3CCC4=CC(=O)CC[C@]4(C)[C@H]3CC[C@]12C [progesterone],Dissociation from PR compared with ORG2058,[5],more rapidly
